Article PMC12314070 (Nature Communications, 2025)
Values after ≈ are worked out from the molar mass of the structure shown. Positions of bridges follow the written chain, without caps; N, C: chain ends. Non-standard residues stand in square brackets, D forms with d. Residues, ends and D or L forms follow the SMILES beside them. *: point of attachment. X1 = CC[C@H](C)CCCCC(=O)*; Dab = NCC[C@H](N)C(=O)O

Columns and labels:
[1] = test system: E. Coli MG1655-mcr-1; assay: Neutropenic thigh infection model; assay type: in vivo, mice; conditions: colistin resistant E. coli thigh infection, 20 mg/kg once daily s.c.
[2] = test system: S. aureus USA 300; assay: MIC assay; assay type: cell-based, Staphylococcus aureus; conditions: Table 1, Met^R, MDR
[3] = test system: S. aureus BNCC 186335; assay: MIC assay; assay type: cell-based; conditions: Staphylococcus aureus, BNCC186335, Table 1, Azm^R, Pen^R
[4] = test system: A. baumannii BNCC 194496; assay: MIC assay; assay type: cell-based, Acinetobacter baumannii; conditions: Table 1, Cip^R
[5] = test system: A. baumannii BNCC194496-mcr-1; assay: MIC assay; assay type: cell-based; conditions: Acinetobacter baumannii, BNCC194496MCR1

CC[C@H](C)CCCCC(=O)N[C@@H](CCN)C(=O)N[C@H](C(=O)N[C@@H](CCN)C(=O)N[C@H]1CCNC(=O)[C@H]([C@@H](C)O)NC(=O)[C@H](CCN)NC(=O)[C@H](CCN)NC(=O)[C@H](CC(C)C)NC(=O)[C@@H](CC(C)C)NC(=O)[C@H](CCN)NC1=O)[C@@H](C)O [Colistin] (X1-[Dab]T[Dab][Dab][Dab][dL]L[Dab][Dab]T; lactam 4-C; N-terminus assumed)
reduction of bacterial burden [1]: no activity

CN[C@H](CC(C)C)C(=O)N[C@H]1C(=O)N[C@@H](CC(N)=O)C(=O)N[C@H]2C(=O)N[C@H]3C(=O)N[C@H](C(=O)N[C@H](C(=O)O)c4cc(O)cc(O)c4-c4cc3ccc4O)[C@H](O)c3ccc(c(Cl)c3)Oc3cc2cc(c3O[C@@H]2O[C@H](CO)[C@@H](O)[C@H](O)[C@H]2O[C@H]2C[C@](C)(N)[C@H](O)[C@H](C)O2)Oc2ccc(cc2Cl)[C@H]1O [Vancomycin]
MIC [2]: 1 µg/mL (≈ 0.69 µM) | MIC [3]: 0.5 µg/mL (≈ 0.345 µM)

CO/N=C(\C(=O)N[C@@H]1C(=O)N2C(C(=O)O)=CCS[C@H]12)c1csc(N)n1 [Ceftizoxime]
MIC [4]: 4 µg/mL (≈ 10.4 µM) | MIC [5]: 4 µg/mL (≈ 10.4 µM)

COc1cccc(OC)c1C(=O)N[C@@H]1C(=O)N2[C@@H]1SC(C)(C)[C@@H]2C(=O)O [Methicillin]
MIC [2]: >64 µg/mL
